The source of these data is patent US10874636B2, “Application of substituted cinnamamide derivatives in preparation of anti-anxiety medication” (TASLY PHARMACEUTICAL GROUP CO., LTD., priority 2016, dated 2020).

One assay deals with mice. In words: Elevated plus-maze test for mice. Format: in vivo, ICR male mice. Particulars: 10 mg/kg intragastric for 1 week; in words. The method, then: 247 ICR male mice aged 6-8 weeks with the weight of 18-22 g were taken and fed adaptively for 1 week. Then, these mice were evenly divided, at random, into 19 groups based on their weights. Intragastric administration was conducted once a day according to the drugs and dosages listed in Table 1, which lasted for 7 consecutive days. 20 minutes after administration on the 7th day, the elevated plus-maze test was conducted.
The elevated plus-maze (EPM) for mice were composed of two opposite open arms (50 cm×10 cm) and two opposite enclosed arms (50 cm×10 cm×40 cm), wherein upper portions of the enclosed arms were not capped, an open portion of 10 cm×10 cm was located in the middle of the maze, and the maze was 50 cm away from the ground. The test was conducted in a quite environment at a time period ranging from 13:00 to 18:00.
The open-arms entries (OE) and enclosed-arms entries, as well as the residence time in two arms, of the mice, within 5 minutes, were recorded respectively, and the percentage of the open-arms entries (OE %) and that of the open-arms time (OT %) for each group of mice with respect to the total entries into the two arms and the total residence time in the two arms therein were calculated respectively.
Analysis was conducted using SPSS 11.5 software, and data were represented by x±S, the significance of differences between groups was compared using the analysis of variance, differences were significant while P was less than 0.05.

The subject of the next assay is rats. In words: Drinking conflict experiment for rats (Vogel test). Format: in vivo, SD male rats. Conditions: for Effect on water licks of the rats during the punished session compared with the solvent control groups: 5 mg/kg intragastric for 10 days, in words; for Water licks of rats during punished session: 5 mg/kg intragastric once a day for 10 days, test half an hour after final administration, 3 minutes, 0.3 mA, x±S. The method, then:
230 SD male rats with the weight of 180-220 g were taken and fed adaptively for 1 week. Then, these rats were divided, at random, into 19 groups based on their weights, 12-13 rats in each group. Intragastric administration was conducted one a day according to the drugs and dosages listed in Table 2, which lasted for 10 consecutive days. Water deprivation 48 hours before the final administration, and non-punitive drinking training was conducted on the 9th day; on the 10th day, half an hour after the final intragastric administration of all the groups, the punitive experimental test was conducted.
On the first stage (non-punitive drinking training): after water deprivation for 24 hours, the rats were placed in operation boxes individually to explore thoroughly, until they found bottle mouths and began to lick water, water licks of the rats within 3 minutes under the conditions of no electric shock (the condition was set as follows: the strength of electric shock was 0 mA) were automatically recorded by counters, and rats whose water licks were less than 300 were eliminated. On the second stage (punitive experiment): the above rats which were not eliminated were placed in the operation boxes after continuing the water deprivation for 24 hours (48 hours in total). The rats could find the bottle mouths rapidly and begin to lick water, the instruments began to time automatically and imparted one electric shock (the ratio of licks to the number of electric shocks was 20:1) while the water licks reached to 20, wherein the strength of electric shocks was 0.3 mA, lasting for 2 seconds, but these rats may control the length of the time for which they were electrically shocked by keeping away from the bottle mouths. Water licks of the rats during the punished session (3 minutes) were recorded.
Observational indexes of the Vogel drinking conflict model: water licks of the rats during the punished session.

As for `O=C(/C=C/c1cc2c(c(C(F)(F)F)c1)OCO2)N1CCCCC1` [II-10, 5′-trifluoromethyl-3′,4′-methylenedioxy cinnamic acid piperidinylamide], in the assay on mice, the “Effect on open-arms entries of the mice compared with the solvent control groups” value is reported as “increase the open-arms entries of the mice” and the “Effect on open-arms time of the mice compared with the solvent control groups” value is “prolong their open-arms time”. Further, in the assay with rats, the “Effect on water licks of the rats during the punished session compared with the solvent control groups” value is “increase water licks of the rats during the punished session” and the “Water licks of rats during punished session” value was 459.75 ± 59.23.
`CC(C)CNC(=O)CCc1cc2c(c(C(F)(F)F)c1)OCO2` [II-11, 3-(5′-trifluoromethyl-3′,4′-methylenedioxyphenyl)-propionic acid isobutylamide]: in the assay with mice, the “Effect on open-arms entries of the mice compared with the solvent control groups” value is “increase the open-arms entries of the mice” and the “Effect on open-arms time of the mice compared with the solvent control groups” value is given as “prolong their open-arms time”. Besides, in the assay on rats, the “Effect on water licks of the rats during the punished session compared with the solvent control groups” value was “increase water licks of the rats during the punished session” and the “Water licks of rats during punished session” value stood at 426.25 ± 37.29.
In the case of `O=C(/C=C/c1cc(O)c(O)c(C(F)(F)F)c1)N1CCCCC1` [III-9, 3′,4′-dihydroxyl-5′-trifluoromethyl-cinnamyl piperidine], in the assay on mice, the “Effect on open-arms entries of the mice compared with the solvent control groups” value is listed as “increase the open-arms entries of the mice” and the “Effect on open-arms time of the mice compared with the solvent control groups” value was “prolong their open-arms time”. Also, in the assay with rats, the “Effect on water licks of the rats during the punished session compared with the solvent control groups” value is “increase water licks of the rats during the punished session” and the “Water licks of rats during punished session” value came to 363.56 ± 39.70.
In the case of `CC(C)CNC(=O)/C=C/C=C/CCc1cc2c(c(C(F)(F)F)c1)OCO2` [II-14, (2E, 4E)-N-isobutyl-7-(5′-trifluoromethyl-3′,4′-methylenedioxyphenyl)-2,4-heptadiene amide], in the assay on mice, the “Effect on open-arms entries of the mice compared with the solvent control groups” value is listed as “increase the open-arms entries of the mice” and the “Effect on open-arms time of the mice compared with the solvent control groups” value is recorded as “prolong their open-arms time”. Besides, in the assay on rats, the “Effect on water licks of the rats during the punished session compared with the solvent control groups” value is on record as “increase water licks of the rats during the punished session” and the “Water licks of rats during punished session” value is listed as 368.00 ± 47.38.
